Results on one compound are retold here after patent US6693215B2, “Process for the preparation of salts of L-carnitine and alkanoyl L-carnitine with mucic acid” (Sigma-Tau Industrie Farmaceutiche Riunite S.p.A., priority 2002, dated 2004).

The series can be described thus: Analytical data of the compound obtained: water solubility. Format: physicochemical. As to conditions: product of Example 1, white powder.

Turning to `CC(=O)OC(CC(=O)O)C[N+](C)(C)C.CC(=O)OC(CC(=O)O)C[N+](C)(C)C.O=C([O-])C(O)C(O)C(O)C(O)C(=O)[O-]` [Example 1, acetyl L-carnitine mucate (2:1)], the Water solubility result is “Poorly soluble”.
